# Positions of bridges follow the written chain, without caps; N, C: chain ends. Non-standard residues stand in square brackets, D forms with d. Residues, ends and D or L forms follow the SMILES beside them. 2Nal = N[C@@H](Cc1ccc2ccccc2c1)C(=O)O; Lys(iPr) = CC(C)NCCCC[C@H](N)C(=O)O
# What was measured:
# ovarian cancer models = conditions: ref [32]; cited from earlier work
# Source text: (§1) Due to the critical role of SDF-1/CXCR4 interaction in immune cell retention and mobilization, CXCR4 inhibition may lead to T-cell infiltration and redistribution in tumor microenvironments.
# pancreatic cancer = conditions: mice with pancreatic cancer; ref [7]; cited from earlier work
# Source text: as §1
# hepatic carcinoma models = conditions: ref [30]; cited from earlier work
# Source text: as §1
# [1] = ref [43]; cited from earlier work
# WBC count = conditions: ref [43], cited from earlier work
# leukocytes and HSCs = conditions: ref [12], [20], [24]; cited from earlier work
# Source text: In addition to tumor microenvironments, SDF-1 is constitutively expressed at high levels in bone marrow and is an efficient chemotactic factor for immune cells including T-cells, B-cells, and monocytes. […] There are two major mechanisms involved in this function: down-regulation of cell surface CXCR4 by internalization or proteolysis, and antagonism via direct blockade of SDF-1/CXCR4 interaction.
# monkey CXCR4 = biological target: T1, monkey CXCR4 (Macaca fascicularis, UniProt Q28474); assay: SDF-1/CXCR4 binding assay, MDA-MB-435 cells transfected with monkey CXCR4; conditions: MDA-MB-435 cells stably transfected with monkey CXCR4; SPA mode; read-out: IC50, inhibition of SDF-1 binding
# T1 construct: expressed in transfected cells; host or cells: MDA-MB-435 cells
# Description: (§2) Preclinical characterization of both agents was previously described. Interaction of SDF-1/CXCR4 was assayed in human leukemia CCRF-CEM cells expressing high levels of human CXCR4, MDA-MB-435 cells stably transfected with monkey CXCR4, and mouse 2PK-3 lymphoma cells expressing high levels of mouse CXCR4.
# (§3) Figure 1 LY2510924 peptide and LY2624587 antibody inhibition of SDF-1/CXCR4 binding in human, monkey, and mouse cells LY2510924 (peptide antagonist) inhibits binding in (A) human, (B) monkey, and (C) mouse cells. LY2624587 (CXCR4 mAb) inhibits binding in (D) human, (E) monkey, and (F) mouse cells. Human cells = leukemia CCRF-CEM cells with high-level expression of human CXCR4, monkey cells = MDA-MB-435 cells stably transfected with monkey CXCR4, and mouse cells = 2PK-3 lymphoma cells with high-level expression of mouse CXCR4. Ki = inhibitor constant.
# (§4) The SDF-1/CXCR4 binding assay used human leukemia CCRF-CEM cells that express endogenous CXCR4 and [125I]-labeled recombinant human SDF-1α (PeproTech EC Ltd., London, UK) as previously described. The same assay was conducted for breast cancer MDA-MB-435 cells transfected with monkey CXCR4 and mouse lymphoma 2PK-3 cells that express endogenous mouse CXCR4. Plates were counted in a 1450 Microbeta Liquid Scintillation and Luminescence Counter (Wallac) in SPA mode.
# [2] = 1- to 30-mg/day, patients with advanced cancer; ref [9]; cited from earlier work
# Source text: We developed LY2624587, a fully humanized CXCR4 mAb that is among the first-in-class anti-CXCR4 mAbs developed, for the treatment of patients with cancer. […] A role for LY2624587 antibody in mobilizing HSCs and WBCs has not been previously reported. We also developed LY25 ...
# mouse CXCR4 = biological target: T2, mouse CXCR4 (Mus musculus, UniProt P70658); assay: SDF-1/CXCR4 binding assay, mouse lymphoma 2PK-3 cells
# T2 construct: mouse lymphoma 2PK-3 cells that express endogenous mouse CXCR4; endogenous in cells; host or cells: 2PK-3 mouse lymphoma cells
# Description: as §2, §3, §4
# human CXCR4 = biological target: T3, human CXCR4 (Homo sapiens, UniProt P61073); assay: SDF-1/CXCR4 binding assay, [125I]-SDF-1α, human leukemia CCRF-CEM cells
# T3 construct: human leukemia CCRF-CEM cells that express endogenous CXCR4; endogenous in cells; host or cells: CCRF-CEM human leukemia cells
# Description: as §2, §3, §4
# [3] = system: patients with chronic lymphocytic leukemia, normal lymphocytes; conditions: ref [40]; cited from earlier work
# Source text: (§5) These distinct in vitro properties may be related to the differential mobilization of WBCs and HSCs in vivo, but the mechanism is not yet understood and these differences cannot fully explain why LY2624587 antibody induced only minimal changes in WBCs and HSCs in monkeys and humans. […] Weak immune cell mobilization by LY2624587 antibody may be a class phenomenon of mAb agents. Ano ...
# hematologic malignancies = conditions: ref [11], [39]; cited from earlier work
# Source text: as §5
# [4] = system: patients with multiple myeloma, peripheral leukocytes; conditions: ref [41]; cited from earlier work
# Source text: as §5
# T2 sequence (P70658 whole entry): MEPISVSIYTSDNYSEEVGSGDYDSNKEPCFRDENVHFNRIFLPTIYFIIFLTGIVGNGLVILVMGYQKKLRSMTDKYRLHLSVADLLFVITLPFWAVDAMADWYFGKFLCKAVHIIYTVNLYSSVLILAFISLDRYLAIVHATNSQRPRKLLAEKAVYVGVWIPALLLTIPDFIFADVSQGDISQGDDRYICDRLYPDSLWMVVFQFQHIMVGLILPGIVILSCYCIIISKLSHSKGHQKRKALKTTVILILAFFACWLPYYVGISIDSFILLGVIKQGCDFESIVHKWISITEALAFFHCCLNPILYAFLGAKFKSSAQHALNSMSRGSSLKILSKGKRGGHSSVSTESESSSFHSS
# T3 sequence (P61073 whole entry): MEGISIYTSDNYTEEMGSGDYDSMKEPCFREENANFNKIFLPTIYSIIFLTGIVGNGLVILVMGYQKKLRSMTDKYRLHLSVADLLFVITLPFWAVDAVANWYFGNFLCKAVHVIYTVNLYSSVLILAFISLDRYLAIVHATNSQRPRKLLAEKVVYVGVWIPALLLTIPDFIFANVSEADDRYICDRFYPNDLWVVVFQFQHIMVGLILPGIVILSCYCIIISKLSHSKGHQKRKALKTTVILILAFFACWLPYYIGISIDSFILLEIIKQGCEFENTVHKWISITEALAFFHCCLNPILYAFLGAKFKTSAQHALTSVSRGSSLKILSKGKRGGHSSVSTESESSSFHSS
# T1 sequence (Q28474 whole entry): as the sequence (P61073 whole entry) above, with M24I, N35H, K38R, R146K, N176S counted along it
molecule,measurement,setting,value
c1cc(CN2CCCNCCNCCCNCC2)ccc1CN1CCCNCCNCCCNCC1 [AMD3100],effect on intra-tumor regulatory T-cells,ovarian cancer models,selective reduction of intra-tumor regulatory T-cells
same,effect on tumor apoptosis,ovarian cancer models,increased tumor apoptosis
same,T-cell accumulation near tumors,pancreatic cancer,rapid T-cell accumulation near tumors
same,"combination with anti–PD-L1 mAb, tumor cell elimination",pancreatic cancer,synergistic with an anti–PD-L1 mAb to eliminate tumor cells
same,combination with anti–PD-1,hepatic carcinoma models,augmented anti–PD-1 combination therapy efficacy
same,safety on chronic dosing schedule,[1],poses significant safety concerns due to compound-associated toxicity
same,duration of single dose effect,WBC count,appeared to last only a few hours
same,WBC count at 24 hours,"WBC count; single dose, 24 hours",reduced to near baseline level at 24 hours
same,mobilization of WBCs including neutrophils and HSCs,leukocytes and HSCs,mobilize both white blood cells (WBCs) including neutrophils and HSCs
CC(C)NCCCC[C@H](NC(=O)[C@H]1CCC(=O)N[C@@H](Cc2ccccc2)C(=O)N[C@@H](Cc2ccc(O)cc2)C(=O)N[C@@H](CCCCNC(C)C)C(=O)N[C@H](CCCNC(=N)N)C(=O)N[C@@H](Cc2ccc3ccccc3c2)C(=O)NCC(=O)N1)C(N)=O [LY2510924] (FY[Lys(iPr)][dR][2Nal]G[dE][Lys(iPr)]-NH2; lactam N-7),IC50,monkey CXCR4,0.097 nM
same,pharmacokinetic and safety profiles,[2],favorable pharmacokinetic and safety profiles
same,"IC50 difference, mouse versus human cells",mouse CXCR4; mouse 2PK-3 vs human CCRF-CEM,35 fold
same,"IC50 difference, mouse versus monkey cells",mouse CXCR4; mouse 2PK-3 vs monkey CXCR4 MDA-MB-435,29 fold
same,IC50,"mouse CXCR4; mouse lymphoma 2PK-3 cells, SPA mode, read-out: IC50, inhibition of SDF-1 binding",2.83 nM
same,Ki,human CXCR4,0.0495 nM
same,IC50,"human CXCR4; human leukemia CCRF-CEM cells, [125I]-labeled human SDF-1α, SPA mode, read-out: IC50, inhibition of SDF-1 binding",0.0797 nM
BMS-936564/MDX-1338: CXCR4-specific mAb in clinical development,increase in absolute number of normal lymphocytes,[3],no evidence of increase
same,antitumor and pro-apoptotic functionality,hematologic malignancies,antitumor and pro-apoptotic functionality
same,duration of leukocyte increase,[4],transient
same,increase in peripheral leukocytes (median),[4],2 fold

# Source: paper PMC5706900, “Distinct mobilization of leukocytes and hematopoietic stem cells by CXCR4 peptide antagonist LY2510924 and monoclonal antibody LY2624587” (Oncotarget, 2017)
